# Test results as given in patent US11548891B1, “Quaternary ammonium salts of phenanthroindolizidine and phenanthroquinolizidine alkaloids as hypoxia-targeted anticancer agents” (BATTERJEE MEDICAL COLLEGE, priority 2022, dated 2023).
# Where two headings read alike, the source gives them in different places.
# Assays:
# MRC5 = test: Cytotoxicity under normoxia (MTT), MRC5; type: cell-based, human; settings: Homo sapiens, MRC5, read-out: IC50 MRC5
# Procedure: (§1) The cytotoxicity of the compounds 5a-c and their parent alkaloids was evaluated by the 3-[4,5-dimethylthiazole-2-yl]-2,5-diphenyltetrazolium bromide (MTT) assay against 5 cancerous and 2 non-cancerous cell lines (Table 4).
# (§2) The eight cell lines HEK293 (Human embryonic kidney 293), CHO-Kt (Chinese hamster ovary K1), MCF-7 cells (Human breast adenocarcinoma), HCT116 (human colorectal carcinoma), RKO (Human rectal carcinoma), SW480 (human colorectal carcinoma), H460 (Human lung cancer), and MRCS (Normal human fetal lung fibroblast), were obtained from the ATCC. The cell lines were routinely grown in alpha minimum essential medium (α-MEM) containing 5% fetal calf serum (FCS). The appropriate number of cells (HCT116=400 cells/well, H460 cells=600 cells/well) were seeded into 96-well plates under normoxic or hypoxic conditions. Cells were plated in 100 μL α-MEM containing 10% FCS, 10 mM D-Glucose and 0.2 mM 20-deoxycytidine. After incubation for 2 h, the compounds were added at the appropriate concentration and incubated for further 4 h. The cells were then washed three times with drug-free α-MEM (containing 5% FCS and pen/strep). The plates were then incubated for 5 days under normoxic conditions. The cells were stained with sulphorhodamine B to measure total cells as per the standard procedure described in Skehan, et. al. [Skehan, P., et. al., J. Natl. Cancer Inst., 1990, 82, 1107-1112, incorporated herein by reference in its entirety]. The IC50 was determined by interpolation as the compound concentration reducing staining to 50% of controls on the same plate as per the standard procedure described in Guise, et. al. [Guise, C. P., et. al., Biochem. Pharmacol., 2007, 74, 810-820, incorporated herein by reference in its entirety].
# HCT116 [1] = test: Cytotoxicity under normoxia (MTT), HCT116; type: cell-based, human; settings: Homo sapiens, HCT-116, read-out: IC50 HCT116
# Procedure: as §1, §2
# MCF7 = test: Cytotoxicity under normoxia (MTT), MCF7; type: cell-based, Human; settings: Homo sapiens, MCF7, read-out: IC50 MCF7
# Procedure: as §1, §2
# HCT116 [2] = test: Cytotoxicity under normoxia and hypoxia (anaerobic chamber), HCT116; type: cell-based, human; settings: for IC50: Homo sapiens, HCT-116, 4 h exposure
# Procedure: (§3) The ability of the designed prodrugs to liberate the active alkaloids in hypoxic tumors was evaluated by testing them under hypoxic conditions using an anaerobic chamber. The three prodrugs 5a-c and their parent alkaloids as well as the reference compounds PR-104A, the parent alcohol form of the phosphate pre-prodrug PR-104, and evofosfamide were tested using the HCT116 and H460 cell lines under both normoxic and hypoxic conditions (Table 5). The prodrugs were much less cytotoxic than the parent drugs, in agreement with the results using the other cell lines described above (see FIG. 6).
# as §2
# SW480 = test: Cytotoxicity under normoxia (MTT), SW480; type: cell-based, human; settings: Homo sapiens, SW480, read-out: IC50 SW480
# Procedure: as §1, §2
# H460 = test: Cytotoxicity under normoxia and hypoxia (anaerobic chamber), H460; type: cell-based, Human; settings: for IC50: Homo sapiens, NCI-H460, 4 h exposure
# Procedure: as §3, §2
# RKO = test: Cytotoxicity under normoxia (MTT), RKO; type: cell-based, Human; settings: Homo sapiens, RKO, read-out: IC50 RKO
# Procedure: as §1, §2
# [3] = BBB-Parallel Artificial Membrane Permeability Assay (BBB-PAMPA); type: in vitro ADME
# Procedure: The physicochemical properties of the new compounds were evaluated (Table 1). […] Consequently, these derivatives lost their BBB penetrability, as predicted by the BBB-Parallel Artificial Membrane Permeability Assay (BBB-PAMPA), whereas their parent alkaloids had free passage through the BBB.
# (§4) Water solubility, log D, and PAMPA-BBB were evaluated using the protocols as described in Omran, et. al. [Omran, Z., et. al., Chem. Pharm. Bull., 2019, 67, 1208-1210, incorporated herein by reference in its entirety].
# [4] = Mouse microsomal liver stability assay; settings: male, Balb/c, mouse, 2 μM, pH 7.4
# Procedure: Protoc. […] Microsomal incubations were carried out in 96-well plates in 5 aliquots of 40 μL each. […] Control incubations were performed by replacing the NADPH-cofactor system with PBS. The additional control incubations in PBS (with 3.3 mM MgCl2) without added microsomes were carried out in this study. […] The incubations were performed in duplicates. Five time points over 40 min had been analyzed. The reactions were stopped by adding 12 volumes of 90% acetonitrile-water to incubation aliquots, followed by protein sedimentation by centrifuging at 5500 rpm for 3 min. The supernatants were analyzed using LC-MS as mentioned above.
# LogD = type: physicochemical
# Procedure: as §4
# CHO-K1 = test: Cytotoxicity under normoxia (MTT), CHO-K1; type: cell-based, Chinese hamster; settings: Cricetulus griseus, CHO-K1, read-out: IC50 CHO-K1
# Procedure: as §1, §2
# PBS (pH 7.4) solubility = type: physicochemical
# Procedure: as §4
# HEK293 = test: Cytotoxicity under normoxia (MTT), HEK293; type: cell-based, Human; settings: Homo sapiens, HEK293, read-out: IC50 HEK293
# Procedure: as §1, §2
# [5] = HTC 116, hypoxia, read-out: IC50 (Hypoxia)
# [6] = HTC 116, normoxia, read-out: IC50 (Normoxia)
# [7] = H460, hypoxia, read-out: IC50 (Hypoxia)
# [8] = H460, normoxia, read-out: IC50 (Normoxia)
compound,measurement,setting,value
"COc1cc2c3c(c4cc(OC)c(OC)cc4c2cc1OC)C[N+]1(Cc2c([N+](=O)[O-])ncn2C)CCC[C@@H]1C3.[Br-] (stereo partly drawn) [Compound 5c, (13aR)-2,3,6,7-tetramethoxy-10-((1-methyl-4-nitro-1H-imidazol-5-yl)methyl)-10,11,12,13,13a, 14-hexahydro-9H-dibenzo[f,h]pyrrolo[1,2-b]isoquinolin-10-ium bromide]",IC50,MRC5,3.94 ± 0.127 µM
same,IC50,HCT116 [1],9.02 ± 1.13 µM
same,IC50,MCF7,8.05 ± 0.343 µM
same,melting point,,185 to 187 °C
same,HCR (Hypoxia Cytotoxicity Ratio = normoxic IC50/hypoxic IC50),HCT116 [2],1.5
same,DR (Deactivation Ratio = IC50 (prodrug)/IC50 (parent drug)),"HCT116 [2]; HTC 116, normoxia",128
same,IC50,HCT116 [2]; [5],3020 nM
same,IC50,HCT116 [2]; [6],9060 nM
same,IC50,SW480,9.86 ± 1.69 µM
same,HCR (Hypoxia Cytotoxicity Ratio = normoxic IC50/hypoxic IC50),H460,7.8
same,DR (Deactivation Ratio = IC50 (prodrug)/IC50 (parent drug)),"H460; H460, normoxia",293
same,IC50,H460; [7],6.5 µM
same,IC50,H460; [8],51 µM
same,IC50,RKO,8.82 ± 3.08 µM
CNC(=C[N+](=O)[O-])NCCSCc1ccc(CN(C)C)o1 [Ranitidine],Permeability (Papp) Log [10^−6 cm/s] Mean ± SE,[3],<−7 Log [10^−6 cm/s]
CN(C)CCCN1c2ccccc2Sc2ccc(Cl)cc21 [Chlorpromazine],Permeability (Papp) Log [10^−6 cm/s] Mean ± SE,[3],−5.4 ± 0.13 Log [10^−6 cm/s]
"COc1cc2c3c(c4cc(OC)c(OC)cc4c2cc1OC)C[N+]1(Cc2c([N+](=O)[O-])ncn2C)CCC[C@H]1C3.[Br-] (stereo partly drawn) [Compound 5b, (13aS)-2,3,6,7-tetramethoxy-10-((1-methyl-4-nitro-1H-imidazol-5-yl)methyl)-10,11,12,13,13a, 14-hexahydro-9H-dibenzo[f,h]pyrrolo[1,2-b]isoquinolin-10-ium bromide]",IC50,MRC5,3.31 ± 0.163 µM
same,IC50,HCT116 [1],3.3 ± 1.56 µM
same,IC50,MCF7,1.5 ± 0.128 µM
same,"Kel, min^−1 (elimination rate constant)",[4],0.002 ± 0 min⁻¹
same,compound metabolized into the parent drug,[4]; microsomes,less than 1%
same,melting point,,165 to 167 °C
same,Permeability (Papp) Log [10^−6 cm/s] Mean ± SE,[3],<−7 Log [10^−6 cm/s]
same,LogD Mean ± SE,LogD,0.38 ± 0.04
same,HCR (Hypoxia Cytotoxicity Ratio = normoxic IC50/hypoxic IC50),HCT116 [2],11.3
same,DR (Deactivation Ratio = IC50 (prodrug)/IC50 (parent drug)),"HCT116 [2]; HTC 116, normoxia",689
same,IC50,HCT116 [2]; [5],1460 nM
same,IC50,HCT116 [2]; [6],4490 nM
same,IC50,CHO-K1,3.49 ± 0.843 µM
same,PBS (pH 7.4) Solubility μM Mean ± SE,PBS (pH 7.4) solubility,162 ± 3 μM
same,IC50,SW480,7.25 ± 0.49 µM
same,HCR (Hypoxia Cytotoxicity Ratio = normoxic IC50/hypoxic IC50),H460,24
same,DR (Deactivation Ratio = IC50 (prodrug)/IC50 (parent drug)),"H460; H460, normoxia",719
same,IC50,H460; [7],3.22 µM
same,IC50,H460; [8],77.6 µM
same,IC50,RKO,4.06 ± 0.181 µM
same,IC50,HEK293,950 ± 174 nM
"Cn1c(COP(=O)(NCCBr)NCCBr)cnc1[N+](=O)[O-] [Evofosfamide, evofosfamide]",HCR (Hypoxia Cytotoxicity Ratio = normoxic IC50/hypoxic IC50),HCT116 [2]; HTC 116,85
same,IC50,HCT116 [2]; [5],20.1 nM
same,IC50,HCT116 [2]; [6],23.9 nM
same,HCR (Hypoxia Cytotoxicity Ratio = normoxic IC50/hypoxic IC50),H460; H460,251
same,IC50,H460; [7],0.0172 µM
same,IC50,H460; [8],4.32 µM
CN1CCN(C2=Nc3cc(Cl)ccc3Nc3ccccc32)CC1 [Clozapine],Permeability (Papp) Log [10^−6 cm/s] Mean ± SE,[3],−5.1 ± 0.12 Log [10^−6 cm/s]
